Measurements published in ChEMBL document CHEMBL1201862, “PubChem BioAssay data set” (2004).
Activity calls are given as the source filed them.

Legend:
Aminopeptidase N = target: T1, Aminopeptidase N (Plasmodium falciparum FcB1/Columbia, UniProt O96935); assay: malaria alanyl aminopeptidase activity blockers – biochemical, fluorogenic H-Leu-NHMec substrate, 1536-well (AID 1445); set-up: species or system Plasmodium falciparum 3D7, 3D7
T1 sequence (O96935 whole entry): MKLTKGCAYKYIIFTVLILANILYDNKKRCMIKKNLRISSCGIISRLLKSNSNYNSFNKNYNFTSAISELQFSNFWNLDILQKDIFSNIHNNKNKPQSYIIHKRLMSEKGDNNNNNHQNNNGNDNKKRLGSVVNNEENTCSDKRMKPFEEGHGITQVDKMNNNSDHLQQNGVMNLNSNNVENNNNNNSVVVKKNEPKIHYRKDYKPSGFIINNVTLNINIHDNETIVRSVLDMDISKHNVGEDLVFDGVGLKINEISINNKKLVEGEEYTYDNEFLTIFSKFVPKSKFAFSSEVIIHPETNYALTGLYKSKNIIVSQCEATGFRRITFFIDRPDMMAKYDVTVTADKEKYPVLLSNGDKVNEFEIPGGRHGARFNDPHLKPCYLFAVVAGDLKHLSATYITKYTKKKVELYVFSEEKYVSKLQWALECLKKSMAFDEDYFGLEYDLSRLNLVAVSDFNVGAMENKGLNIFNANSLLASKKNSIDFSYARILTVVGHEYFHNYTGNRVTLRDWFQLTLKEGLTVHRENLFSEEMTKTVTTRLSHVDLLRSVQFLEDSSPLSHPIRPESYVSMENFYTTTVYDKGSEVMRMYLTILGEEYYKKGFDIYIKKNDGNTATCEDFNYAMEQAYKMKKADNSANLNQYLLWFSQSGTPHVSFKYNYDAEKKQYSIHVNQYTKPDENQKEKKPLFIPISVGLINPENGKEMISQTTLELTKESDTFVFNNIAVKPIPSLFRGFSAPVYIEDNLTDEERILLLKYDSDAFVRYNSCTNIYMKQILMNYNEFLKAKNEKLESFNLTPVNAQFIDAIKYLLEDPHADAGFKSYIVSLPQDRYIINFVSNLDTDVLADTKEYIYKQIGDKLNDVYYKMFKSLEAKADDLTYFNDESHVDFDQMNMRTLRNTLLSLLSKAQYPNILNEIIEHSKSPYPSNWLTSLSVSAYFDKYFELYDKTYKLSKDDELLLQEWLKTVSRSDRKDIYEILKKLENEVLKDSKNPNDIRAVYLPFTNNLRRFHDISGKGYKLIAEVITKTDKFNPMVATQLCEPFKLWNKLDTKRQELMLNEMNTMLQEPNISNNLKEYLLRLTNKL

[1] = viability of uninfected HEp-2 cells – cell-based, HTS, cytotoxicity control for RSV inhibitor project, dose response (AID 2410); assay type: functional; conditions: human respiratory syncytial virus
[2] = target: Voltage-dependent T-type calcium channel subunit alpha-1H (Homo sapiens, UniProt O95180); assay type: functional;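 further: channel activity triggered by adding a high calcium stimulation buffer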
H4 = assay: Luminescence Cell-Based Dose Response HTS to Identify Activators of 5'UTR Stem-Loop Driven Prion Protein mRNA Translation in H4 Neuroglioblastoma Cells. [Related pubchem assays: 1829 (Project Summary), 1814 (Primary HTS)]; assay type: functional; conditions: Homo sapiens
[3] = Trypanosoma cruzi growth suppression in host cells – NIH3T3 host cells, beta-gal luminescence, confirmation (AID 2044); assay type: functional, cell-based;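 further: intracellular parasites grown in NIH/3T3 mouse fibroblasts as host cells; luminescent beta-galactosidase reporter signal from transgenic T. cruzi replicating inside host cells; inhibitors lower the luminescence signal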
[4] = Luminescence Cell-Based Dose Response HTS to Identify Activators of Luciferase Translation or Activity in H4 […] Cells. [Related pubchem assays: 1829 (Project Summary), 1814 (Primary HTS)]; assay type: functional
[5] = NIH3T3 cell viability loss – ATP luminescence, mouse fibroblasts, counter-screen, dose response (AID 2010); assay type: functional, cell-based;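 further: cells exposed to compound for about 90 hours before reading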
[6] = Luminescence Cell-Based Dose Confirmation HTS to Identify Activators of 5'UTR Stem-Loop Driven Alpha-Synuclein mRNA Translation in H4 Neuroglioblastoma Cells. [Related pubchem assays: 1829 (Project Summary), 1814 (Primary HTS)]; assay type: functional
Coagulation factor XII = target: T2, Coagulation factor XII (Homo sapiens, UniProt P00748); assay type: functional;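 further: activated factor XIIa alpha cleaving a fluorogenic AMC peptide substrate; inhibitor potency from loss of enzyme activity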
T2 sequence (P00748 whole entry): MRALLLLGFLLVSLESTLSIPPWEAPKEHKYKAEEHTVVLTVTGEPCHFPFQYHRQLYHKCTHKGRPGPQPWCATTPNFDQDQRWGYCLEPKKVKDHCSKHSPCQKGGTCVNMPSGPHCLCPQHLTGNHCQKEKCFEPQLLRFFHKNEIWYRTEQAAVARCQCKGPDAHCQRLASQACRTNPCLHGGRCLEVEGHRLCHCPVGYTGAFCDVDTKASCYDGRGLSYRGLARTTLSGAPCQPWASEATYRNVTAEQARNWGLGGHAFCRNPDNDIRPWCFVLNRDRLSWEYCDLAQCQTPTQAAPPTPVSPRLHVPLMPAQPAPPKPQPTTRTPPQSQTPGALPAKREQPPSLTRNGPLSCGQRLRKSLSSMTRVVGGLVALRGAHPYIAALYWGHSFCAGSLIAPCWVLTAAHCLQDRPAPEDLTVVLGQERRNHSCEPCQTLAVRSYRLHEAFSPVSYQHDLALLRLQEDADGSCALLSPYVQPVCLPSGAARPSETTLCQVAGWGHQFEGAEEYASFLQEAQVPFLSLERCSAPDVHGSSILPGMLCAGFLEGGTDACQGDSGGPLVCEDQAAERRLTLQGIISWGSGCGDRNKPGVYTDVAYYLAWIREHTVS

Protein skinhead-1 = target: T3, Protein skinhead-1 (Caenorhabditis elegans, UniProt P34707); assay type: functional
T3 sequence (P34707 whole entry): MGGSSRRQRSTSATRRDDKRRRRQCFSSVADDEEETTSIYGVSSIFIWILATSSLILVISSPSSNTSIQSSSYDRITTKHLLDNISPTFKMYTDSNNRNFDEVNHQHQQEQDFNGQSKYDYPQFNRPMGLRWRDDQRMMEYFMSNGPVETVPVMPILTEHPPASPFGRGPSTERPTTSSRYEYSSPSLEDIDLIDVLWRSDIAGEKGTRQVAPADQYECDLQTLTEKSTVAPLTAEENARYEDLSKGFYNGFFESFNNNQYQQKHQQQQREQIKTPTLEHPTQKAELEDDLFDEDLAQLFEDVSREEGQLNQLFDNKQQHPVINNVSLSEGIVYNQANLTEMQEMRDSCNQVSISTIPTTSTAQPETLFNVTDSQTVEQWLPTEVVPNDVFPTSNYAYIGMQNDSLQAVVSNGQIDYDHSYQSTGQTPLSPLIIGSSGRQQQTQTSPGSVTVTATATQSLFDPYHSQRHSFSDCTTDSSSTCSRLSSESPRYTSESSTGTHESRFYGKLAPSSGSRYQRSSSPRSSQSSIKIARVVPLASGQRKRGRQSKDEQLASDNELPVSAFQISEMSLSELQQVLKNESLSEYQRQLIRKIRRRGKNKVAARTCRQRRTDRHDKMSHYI

[7] = target: T4, Alkaline phosphatase, tissue-nonspecific isozyme (Homo sapiens, UniProt P05186); assay: potency against alkaline phosphatase TNAP – biochemical, luminescent, dose response, SAR follow-up (AID 1056)
T4 sequence (P05186 whole entry): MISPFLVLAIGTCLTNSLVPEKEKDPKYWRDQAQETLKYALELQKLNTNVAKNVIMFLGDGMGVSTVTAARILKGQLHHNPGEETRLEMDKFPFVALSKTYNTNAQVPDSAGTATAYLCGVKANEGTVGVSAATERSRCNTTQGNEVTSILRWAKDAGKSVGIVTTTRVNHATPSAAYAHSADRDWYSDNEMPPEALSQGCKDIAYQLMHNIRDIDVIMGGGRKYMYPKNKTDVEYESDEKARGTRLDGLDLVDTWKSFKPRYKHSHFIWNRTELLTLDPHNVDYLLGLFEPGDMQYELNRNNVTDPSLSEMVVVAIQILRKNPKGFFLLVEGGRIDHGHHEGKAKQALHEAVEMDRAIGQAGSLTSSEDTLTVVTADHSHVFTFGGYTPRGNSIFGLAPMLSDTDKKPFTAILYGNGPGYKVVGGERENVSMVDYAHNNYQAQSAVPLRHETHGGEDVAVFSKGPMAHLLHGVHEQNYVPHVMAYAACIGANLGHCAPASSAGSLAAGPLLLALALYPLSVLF

[8] = target: Glyceraldehyde-3-phosphate dehydrogenase (Homo sapiens, UniProt P04406)
[9] = target: Peroxisome proliferator-activated receptor gamma/Nuclear receptor coactivator 2 (Homo sapiens, UniProt P37231); assay: (§1) TR-FRET dose response biochemical High Throughput Screening assay for agonists of the steroid receptor coactivator 2 (SRC-2) recruitment by the peroxisome proliferator-activated receptor gamma (PPAR gamma): non-selective agonists. [Related pubchem assays: 1297, 1032 ]; assay type: functional
[10] = target: Peroxisome proliferator-activated receptor gamma/Nuclear receptor coactivator 1 (Homo sapiens, UniProt P37231); assay: as §1, with “1 (SRC-1)” for “2 (SRC-2)”, “assays (depositor defined):AID1300, AID1808, AID504735, AID631]” for “assays: 1297, 1032 ]”; assay type: protein assay
[11] = target: Peroxisome proliferator-activated receptor gamma/Nuclear receptor coactivator 3 (Homo sapiens, UniProt P37231); assay: as §1, with “3 (SRC-3)” for “2 (SRC-2)”, “1301 (Confirmation screen.), 1048 (Primary screen.)]” for “1297, 1032 ]”; assay type: functional
[12] = HEK-293T cell viability reduction – luminescence, B-cell screen hits, cytotoxicity control for BCR NF-kB inhibitor project, dose response (AID 489021); assay type: functional, cell-based;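 further: HEK-293T cells carrying an NF-kB luciferase reporter; cells exposed to compound for about 14 hours before viability readout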

Chain of Glyceraldehyde-3-phosphate dehydrogenase (P04406 whole entry): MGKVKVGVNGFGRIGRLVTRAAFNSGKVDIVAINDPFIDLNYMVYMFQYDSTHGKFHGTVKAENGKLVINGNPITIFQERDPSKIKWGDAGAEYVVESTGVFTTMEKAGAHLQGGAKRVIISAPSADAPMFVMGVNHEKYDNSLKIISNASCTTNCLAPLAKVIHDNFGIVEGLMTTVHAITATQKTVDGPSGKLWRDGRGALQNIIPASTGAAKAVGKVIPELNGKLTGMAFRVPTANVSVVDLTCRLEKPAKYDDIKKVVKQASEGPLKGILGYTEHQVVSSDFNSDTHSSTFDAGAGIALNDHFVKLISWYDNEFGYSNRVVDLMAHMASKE
Chain of Peroxisome proliferator-activated receptor gamma/Nuclear receptor coactivator 3 (P37231 whole entry): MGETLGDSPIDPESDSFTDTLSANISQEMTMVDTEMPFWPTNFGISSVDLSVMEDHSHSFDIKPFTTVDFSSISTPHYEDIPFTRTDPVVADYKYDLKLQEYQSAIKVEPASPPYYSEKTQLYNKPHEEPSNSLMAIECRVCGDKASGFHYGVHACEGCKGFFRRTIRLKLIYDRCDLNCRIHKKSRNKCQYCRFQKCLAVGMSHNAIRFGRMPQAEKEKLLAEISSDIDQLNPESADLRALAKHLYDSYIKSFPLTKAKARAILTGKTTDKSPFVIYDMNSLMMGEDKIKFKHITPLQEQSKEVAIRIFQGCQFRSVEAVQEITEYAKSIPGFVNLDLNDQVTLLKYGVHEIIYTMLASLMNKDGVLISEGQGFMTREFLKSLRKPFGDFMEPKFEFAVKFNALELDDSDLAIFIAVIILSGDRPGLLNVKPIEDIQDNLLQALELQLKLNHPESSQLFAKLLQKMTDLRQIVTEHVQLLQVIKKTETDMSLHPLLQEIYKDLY
Chain of Peroxisome proliferator-activated receptor gamma/Nuclear receptor coactivator 3 (Q9Y6Q9 whole entry, further chain): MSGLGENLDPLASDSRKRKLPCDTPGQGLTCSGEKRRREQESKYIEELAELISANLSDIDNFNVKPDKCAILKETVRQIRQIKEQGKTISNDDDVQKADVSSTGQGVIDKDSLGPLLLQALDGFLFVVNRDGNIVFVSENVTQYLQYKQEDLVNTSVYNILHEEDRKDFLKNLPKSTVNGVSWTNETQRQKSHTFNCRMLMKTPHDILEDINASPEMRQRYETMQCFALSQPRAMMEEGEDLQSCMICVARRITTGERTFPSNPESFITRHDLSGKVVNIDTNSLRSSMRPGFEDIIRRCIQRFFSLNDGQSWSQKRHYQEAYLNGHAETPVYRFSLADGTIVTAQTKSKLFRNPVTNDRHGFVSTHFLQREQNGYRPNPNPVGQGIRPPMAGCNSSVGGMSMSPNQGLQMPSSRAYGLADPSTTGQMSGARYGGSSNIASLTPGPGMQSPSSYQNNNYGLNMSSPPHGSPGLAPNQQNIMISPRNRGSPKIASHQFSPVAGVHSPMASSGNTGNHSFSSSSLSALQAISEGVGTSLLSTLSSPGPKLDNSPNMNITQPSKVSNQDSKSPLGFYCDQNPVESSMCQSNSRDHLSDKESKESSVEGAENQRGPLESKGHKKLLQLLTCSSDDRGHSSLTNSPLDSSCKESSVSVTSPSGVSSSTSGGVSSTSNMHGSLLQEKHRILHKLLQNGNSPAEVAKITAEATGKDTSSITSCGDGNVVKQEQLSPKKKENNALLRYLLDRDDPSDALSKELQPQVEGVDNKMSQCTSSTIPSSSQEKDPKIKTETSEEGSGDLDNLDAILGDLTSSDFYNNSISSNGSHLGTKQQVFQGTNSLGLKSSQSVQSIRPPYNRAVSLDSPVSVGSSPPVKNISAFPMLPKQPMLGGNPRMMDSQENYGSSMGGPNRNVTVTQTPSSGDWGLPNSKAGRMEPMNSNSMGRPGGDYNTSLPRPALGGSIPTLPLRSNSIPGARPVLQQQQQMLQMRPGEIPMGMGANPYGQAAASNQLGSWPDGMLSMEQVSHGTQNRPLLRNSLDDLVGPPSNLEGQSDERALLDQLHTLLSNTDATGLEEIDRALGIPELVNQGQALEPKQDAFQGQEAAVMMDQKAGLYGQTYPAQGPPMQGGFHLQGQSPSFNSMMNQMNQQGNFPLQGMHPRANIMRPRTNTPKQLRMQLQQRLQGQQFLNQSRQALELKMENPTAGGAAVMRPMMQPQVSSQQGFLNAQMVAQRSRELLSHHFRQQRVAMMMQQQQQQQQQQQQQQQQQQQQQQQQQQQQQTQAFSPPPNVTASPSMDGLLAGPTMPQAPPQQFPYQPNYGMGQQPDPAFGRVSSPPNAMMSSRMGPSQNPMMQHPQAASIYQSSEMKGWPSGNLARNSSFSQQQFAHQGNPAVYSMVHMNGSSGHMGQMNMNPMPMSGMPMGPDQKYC
Chain of Peroxisome proliferator-activated receptor gamma/Nuclear receptor coactivator 2 (P37231 whole entry): as the sequence (P37231 whole entry) above
Chain of Peroxisome proliferator-activated receptor gamma/Nuclear receptor coactivator 2 (Q15596 whole entry, further chain): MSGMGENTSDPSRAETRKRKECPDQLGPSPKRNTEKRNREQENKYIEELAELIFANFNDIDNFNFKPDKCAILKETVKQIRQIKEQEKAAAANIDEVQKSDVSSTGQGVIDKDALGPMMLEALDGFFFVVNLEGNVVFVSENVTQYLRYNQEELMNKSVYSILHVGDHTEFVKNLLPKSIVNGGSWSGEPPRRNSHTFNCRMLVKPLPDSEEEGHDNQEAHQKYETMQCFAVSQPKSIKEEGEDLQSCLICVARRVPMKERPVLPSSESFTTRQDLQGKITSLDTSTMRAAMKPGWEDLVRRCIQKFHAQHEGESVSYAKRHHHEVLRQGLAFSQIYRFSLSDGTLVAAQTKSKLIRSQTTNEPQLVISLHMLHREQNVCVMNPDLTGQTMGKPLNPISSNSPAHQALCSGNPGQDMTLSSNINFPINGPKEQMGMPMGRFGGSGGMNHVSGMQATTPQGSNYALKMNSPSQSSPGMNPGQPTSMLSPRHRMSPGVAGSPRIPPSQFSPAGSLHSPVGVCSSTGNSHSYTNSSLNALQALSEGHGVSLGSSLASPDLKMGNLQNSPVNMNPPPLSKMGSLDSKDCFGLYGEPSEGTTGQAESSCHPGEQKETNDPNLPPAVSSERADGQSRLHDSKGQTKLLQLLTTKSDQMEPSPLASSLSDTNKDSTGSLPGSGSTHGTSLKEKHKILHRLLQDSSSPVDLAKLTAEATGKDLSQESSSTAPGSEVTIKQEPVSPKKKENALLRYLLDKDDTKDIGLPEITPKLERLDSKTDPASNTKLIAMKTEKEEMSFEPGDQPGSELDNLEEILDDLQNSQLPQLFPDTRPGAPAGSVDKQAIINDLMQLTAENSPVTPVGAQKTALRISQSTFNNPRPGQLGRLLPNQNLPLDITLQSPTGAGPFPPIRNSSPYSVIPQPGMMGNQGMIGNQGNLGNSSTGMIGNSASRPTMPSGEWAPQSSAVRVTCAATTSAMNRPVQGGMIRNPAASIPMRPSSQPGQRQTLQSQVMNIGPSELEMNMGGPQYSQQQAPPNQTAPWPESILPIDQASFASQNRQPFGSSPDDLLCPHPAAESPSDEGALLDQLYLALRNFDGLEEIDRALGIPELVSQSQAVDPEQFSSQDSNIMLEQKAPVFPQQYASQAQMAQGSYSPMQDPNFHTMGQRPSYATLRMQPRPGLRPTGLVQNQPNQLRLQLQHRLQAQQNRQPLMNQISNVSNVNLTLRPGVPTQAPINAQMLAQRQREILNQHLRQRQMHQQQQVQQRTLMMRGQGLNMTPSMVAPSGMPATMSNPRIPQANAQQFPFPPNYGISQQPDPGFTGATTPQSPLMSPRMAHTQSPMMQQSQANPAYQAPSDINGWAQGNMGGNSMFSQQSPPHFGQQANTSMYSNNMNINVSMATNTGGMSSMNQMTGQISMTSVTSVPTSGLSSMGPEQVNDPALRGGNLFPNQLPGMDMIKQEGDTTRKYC

Compound: COc1ccc(/C=C2/SC(=O)N(NS(=O)(=O)c3ccccc3)C2=S)cc1OC
- IC50 (cells): 18.8 µM (active)
- IC50 (Aminopeptidase N): 30.5 µM (active)
- CC50 [1]: 31.5 µM (active)

Compound: Cc1ccc(CCNC(=O)C[S+]([O-])Cc2nc(-c3cccc(C)c3)oc2C)cc1 (stereo not drawn)
- EC50 [2]: 4.04 µM (active)

Compound: O=C(Nc1nc(-c2ccc(Cl)s2)cs1)c1cccs1
- EC50 (H4): 5.03 µM (active)
- EC50 [3]: 1.04 µM (active)
- EC50 [4]: 15.1 µM (active)
- EC50 [5]: 8.5 µM (active)
- EC50 [6]: 34.3 µM (active)
- IC50 (Coagulation factor XII): 23.9 µM (active)
- IC50 (Protein skinhead-1): 81.2 µM (inactive)

Compound: CCOC(=O)c1[nH]nc2c1COc1ccccc1-2
- IC50 [7]: > 100 µM (inactive)
- IC50 [8]: > 100 µM (not active)

Compound: CN(C)C1=C(Cl)C(=O)N(c2nnc(Cc3ccccc3)[nH]2)C1=O
- IC50 [7]: 4.49 µM (active)
- IC50 [8]: > 100 µM (not active)

Compound: Cn1c(=O)cc(SCC(=O)Nc2ccccn2)c2ccccc21
- EC50 [9]: > 79.4 µM (not active)
- EC50 [10]: > 79.4 µM (inactive)
- EC50 [11]: > 79.4 µM (not active)

Compound: Cc1cccc(Nc2nc(-c3ccccc3)c(C(=O)Nc3cccnc3)s2)c1
- EC50 [9]: 7.24 µM (active)
- EC50 [10]: 7.34 µM (active)
- EC50 [11]: > 79.4 µM (not active)

Compound: COc1ccc(Nc2nnc(SC(C(=O)Nc3cc(C)ccc3C)c3ccccc3)s2)cc1 (stereo not drawn)
- IC50 (Coagulation factor XII): > 50 µM (inactive)

Compound: CCN1C(=O)c2cccc3c(S(=O)(=O)NCC4CCCO4)ccc1c23 (stereo not drawn)
- IC50 [12]: > 80 µM (inactive)
